Results reported in paper PMC6021035, “Insights into biological activity of ureidoamides with primaquine and amino acid moieties” (Journal of Enzyme Inhibition and Medicinal Chemistry, 2018).
In brackets after ≈: the same amount, converted by molar mass.

Assays:
Format in all cases: cell-based
[1] = system: Staphylococcus aureus ATCC 6538; assay: MIC determination (broth micro-dilution); settings: ATCC6538
Protocol: (§1) Before analysis, compounds 5a–f were dissolved in 96% ethanol in a concentration of 2 mg/ml as stock solutions. Inoculums were prepared with fresh cultures of microbial strains, cultured on tryptic-soy agar or Sabouraud 2% (m/v) dextrose agar for 18 h (48–72 h for fungi) at 30 °C with physiological saline containing approximately […]. Inoculum density (0.5 McFarland units) was adjusted with a bio Mériex (France) densitometer. Minimum inhibitory concentration (MIC) was determined by the twofold micro-dilution method in Mu¨ller–Hinton broth for bacterial strains and RPMI 1640 + 2% m/v dextrose for fungi according to the EUCAST recommendations in a sterile 96-well flat-bottom plastic tissue culture plate. MIC was determined using a linear regression curve after incubation of compounds and reading the optical density at 570 nm using an iEMS microplate reader. […] All tests were performed in triplicate and expressed as the mean.

[2] = system: Pseudomonas aeruginosa ATCC 27853; assay: MIC determination (broth micro-dilution); settings: ATCC27853
Protocol: as §1

[3] = system: Staphylococcus aureus ATCC 25923; assay: MIC determination (broth micro-dilution); settings: ATCC25923
Protocol: as §1

[4] = system: Issatchenkia orientalis Kudrjanzev ATCC 6258; assay: MIC determination (broth micro-dilution); settings: Pichia kudriavzevii, ATCC6258
Protocol: as §1

[5] = system: Escherichia coli ATCC 8739; assay: MIC determination (broth micro-dilution); settings: ATCC8739
Protocol: as §1

Candida kefyr ATCC 2512 [6] = assay: MIC determination (broth micro-dilution); settings: Kluyveromyces marxianus, ATCC2512
Protocol: as §1

[7] = system: Enterococcus hyrae ATCC 8043; assay: MIC determination (broth micro-dilution); settings: ATCC8043
Protocol: as §1

[8] = system: Candida parapsylosis ATCC 22019; assay: MIC determination (broth micro-dilution); settings: ATCC22019
Protocol: as §1

[9] = system: Candida tropicalis ATCC 750; assay: MIC determination (broth micro-dilution); settings: ATCC750
Protocol: as §1

[10] = system: Bacillus cereus ATCC 11778; assay: MIC determination (broth micro-dilution); settings: ATCC11778
Protocol: as §1

[11] = system: Candida albicans ATCC 90028; assay: MIC determination (broth micro-dilution); settings: ATCC90028
Protocol: as §1

[12] = system: Bacillus subtilis ATCC 6633; assay: MIC determination (broth micro-dilution); settings: ATCC6633
Protocol: as §1

[13] = system: Burkholderia caepacia ATCC 25416; assay: MIC determination (broth micro-dilution); settings: ATCC25416
Protocol: as §1

[14] = system: Candida krusei ATCC 14243; assay: MIC determination (broth micro-dilution); settings: Pichia kudriavzevii, ATCC14243
Protocol: as §1

[15] = system: Aspergillus niger ATCC 16404; assay: MIC determination (broth micro-dilution); settings: ATCC16404
Protocol: as §1

[16] = system: Candida albicans ATCC 10231; assay: MIC determination (broth micro-dilution); settings: ATCC10231
Protocol: as §1

[17] = system: Staphylococcus aureus ATCC 25213; assay: MIC determination (broth micro-dilution); settings: ATCC25213
Protocol: as §1

[18] = system: Kocuria rhizophila ATCC 9341; assay: MIC determination (broth micro-dilution); settings: ATCC9341
Protocol: as §1

[19] = system: Pseudomonas aeruginosa ATCC 9027; assay: MIC determination (broth micro-dilution); settings: ATCC9027
Protocol: as §1

[20] = system: Escherichia coli ATCC 10536; assay: MIC determination (broth micro-dilution); settings: ATCC10536
Protocol: as §1

[21] = system: Enterococcus faecalis ATCC 29212; assay: MIC determination (broth micro-dilution); settings: ATCC29212
Protocol: as §1

[22] = system: Staphylococcus aureus ATCC 6538; assay: Minimum biofilm eradication assay
Protocol: (§2) We tested the susceptibility of different bacterial and yeast strains to compounds 5a–f by determining the minimum biofilm eradication concentration (MBEC). The test was performed in a sterile 96-well flat-bottom plastic tissue culture plate (TPP, Switzerland). Each well was filled with 100 µl of bacterial (10^7 CFUs/ml) or yeast (5 × 10^6 CFUs/ml) suspension. When the possibility of inhibition of yeast biofilm formation was tested, the wells were pre-treated with FBS (250 µl per well). Negative controls contained broth only. Positive controls were performed using standard antibacterial and antifungal drugs gentamycin and amphotericin B, respectively. The plates were covered and incubated aerobically for 24 h (bacteria) or 48 h (yeast) at 37 °C. Following the incubation period, each well was aspirated and washed three times with 250 µl of PBS and vigorously shaken in order to remove all non-adherent bacteria/yeast. The remaining attached cells were fixed with methanol (15 min) and the plates were left to dry overnight. The formed biofilm was stained with crystal violet (1%, 5 min). Excess stain was rinsed by placing the plate under running tap water and the plates were left to dry for 24 h. Adherent cells were resolubilized with acetic acid (33%, v/v). The optical density of each well was measured at 570 nm using a Multiscan plate reader. The MBEC value represents the lowest compound dilution at which microorganisms fail to grow.

[23] = system: Pseudomonas aeruginosa ATCC 27853; assay: Minimum biofilm eradication assay
Protocol: as §2

[24] = system: Escherichia coli ATCC 8739; assay: Minimum biofilm eradication assay
Protocol: as §2

Candida kefyr ATCC 2512 [25] = assay: Minimum biofilm eradication assay; settings: Kluyveromyces marxianus, ATCC2512, 48 h, read-out: MBEC
Protocol: as §2

[26] = system: Candida parapsylosis ATCC 22019; assay: Minimum biofilm eradication assay
Protocol: as §2

[27] = system: Candida tropicalis ATCC 750; assay: Minimum biofilm eradication assay; settings: ATCC750, 48 h, read-out: MBEC
Protocol: as §2

[28] = system: Candida krusei ATCC 14243; assay: Minimum biofilm eradication assay; settings: Pichia kudriavzevii, ATCC14243, 48 h, read-out: MBEC
Protocol: as §2

[29] = system: Staphylococcus aureus ATCC 25213; assay: Minimum biofilm eradication assay
Protocol: as §2

[30] = system: Pseudomonas aeruginosa ATCC 9027; assay: Minimum biofilm eradication assay
Protocol: as §2

[31] = system: Escherichia coli ATCC 10536; assay: Minimum biofilm eradication assay
Protocol: as §2

[32] = system: Enterococcus faecalis ATCC 29212; assay: Minimum biofilm eradication assay
Protocol: as §2

| MIC [1] [µg/mL] | MIC [2] [µg/mL] | MIC [3] [µg/mL] | MIC [4] [µg/mL] | MIC [5] [µg/mL] | MIC (Candida kefyr ATCC 2512 [6]) [µg/mL] | MIC [7] [µg/mL] | MIC [8] [µg/mL] | MIC [9] [µg/mL] | MIC [10] [µg/mL] | MIC [11] [µg/mL] | MIC [12] [µg/mL] | MIC [13] [µg/mL] | MIC [14] [µg/mL] | MIC [15] [µg/mL] | MIC [16] [µg/mL] | MIC [17] [µg/mL] | MIC [18] [µg/mL] | MIC [19] [µg/mL] | MIC [20] [µg/mL] | Compound | further results |
| --- | --- | --- | --- | --- | --- | --- | --- | --- | --- | --- | --- | --- | --- | --- | --- | --- | --- | --- | --- | --- | --- |
| 12.5 (≈ 21.5 µM) | 25 (≈ 43 µM) | 15 (≈ 25.8 µM) | > 100 | > 100 | > 100 | > 100 | > 100 | > 100 | 70 (≈ 120 µM) | > 100 | 50 (≈ 85.9 µM) | 65 (≈ 112 µM) | > 100 | > 100 | > 100 | 6.5 (≈ 11.2 µM) | 25 (≈ 43 µM) | 60 (≈ 103 µM) | > 100 | COc1cc(NC(C)CCCNC(=O)NC(CC(C)C)C(=O)NC(c2ccccc2)c2ccccc2)c2ncccc2c1 (stereo not shown) [Compound 5a, N-(diphenylmethyl)-2-[({4-[(6-methoxyquinolin-8-yl)amino]pentyl}carbamoyl)amino]-4-methylpentanamide] | MIC [21]: > 100 µg/mL; MBEC [22]: 12.5 µg/mL; MBEC [23]: 25 µg/mL; MBEC [24]: 6.25 µg/mL; minimal effective concentration (Candida kefyr ATCC 2512 [25]): > 100 µg/mL; MBEC [26]: >100 µg/mL; minimal effective concentration [27]: > 100 µg/mL; minimal effective concentration [28]: > 100 µg/mL; MBEC [29]: 25 µg/mL; MBEC [30]: 60 µg/mL; MBEC [31]: 6.25 µg/mL; MBEC [32]: >100 µg/mL |
| > 100 | > 100 | 65 (≈ 106 µM) | > 100 | > 100 | > 100 | > 100 | > 100 | > 100 | > 100 | > 100 | > 100 | > 100 | > 100 | > 100 | > 100 | 60 (≈ 97.4 µM) | > 100 | > 100 | > 100 | COc1cc(NC(C)CCCNC(=O)NC(C(=O)N(C)C(c2ccccc2)c2ccccc2)c2ccccc2)c2ncccc2c1 (stereo not shown) [Compound 5b, N-(diphenylmethyl)-2-[({4-[(6-methoxyquinolin-8-yl)amino]pentyl}carbamoyl)amino]-N-methyl-2-phenylacetamide] | MIC [21]: > 100 µg/mL; MBEC [22]: >100 µg/mL; MBEC [23]: >100 µg/mL; MBEC [24]: 12.5 µg/mL; minimal effective concentration (Candida kefyr ATCC 2512 [25]): > 100 µg/mL; MBEC [26]: >100 µg/mL; minimal effective concentration [27]: > 100 µg/mL; minimal effective concentration [28]: > 100 µg/mL; MBEC [29]: >100 µg/mL; MBEC [30]: >100 µg/mL; MBEC [31]: 12.5 µg/mL; MBEC [32]: >100 µg/mL |
